Reference: US8222202B2 (priority 2006, dated 2012)
Like-named read-outs stand apart in the source and are kept apart here. Starred links: 1 amine or outer side, 2 acyl side, 3 side chain; linkers in the order of their positions; H or OH if unused. Positions of bridges follow the written chain, without caps; N, C: chain ends. Non-standard residues stand in square brackets, D forms with d. Residues, ends and D or L forms follow the SMILES beside them. Ala(2-furyl) = N[C@@H](Cc1ccco1)C(=O)O; Orn(iPr) = CC(C)NCCC[C@H](N)C(=O)O; X1 = CCNCCC[C@H](N[*:1])C(=O)[*:2]; 2Thi = N[C@@H](Cc1cccs1)C(=O)O; Aad = N[C@@H](CCCC(=O)O)C(=O)O; Orn = NCCC[C@H](N)C(=O)O; Dab = NCC[C@H](N)C(=O)O

Experiments:
hV1a receptor = target: T1, hV1a receptor (Homo sapiens, UniProt P37288); assay: hV1a receptor transcriptional reporter (luciferase) agonist assay; format: cell-based
T1 construct: expressed in transfected cells; host or cells: HEK-293
Method: (§1) Agonist activity of compounds on the hV1a receptor was determined in a transcriptional reporter assay by transiently transfecting a hV1a receptor expression DNA into HEK-293 cells in concert with a reporter DNA containing intracellular calcium responsive promoter elements regulating expression of firefly luciferase. See Boss, V., Talpade, D. J., Murphy, T. J. J. Biol. Chem. 1996, May 3; 271(18), 10429-10432 for further guidance on this assay. […] To determine selectivity, compounds were tested in luciferase-based transcriptional reporter assays expressing the human oxytocin (hOT) receptor. Assays for other receptors (hV2, hV1b, rat V1a and rat V2) were also conducted.
(§2) The EC50 value given is the geometric mean expressed in nanomol/L (nM). Selectivity values are given as EC50 ratios.

[1] = test system: anaesthetised Sprague-Dawley male rats; assay: in vivo duration of action, blood pressure test in anaesthetised rats; design: species or system rat; conditions: ratio of decay rate of diastolic blood pressure response, AVP 0.1 nmol/kg i.v. to equieffective dose of compound; dibenamine-pretreated rats
Method: Blood pressure tests were carried out on anaesthetised Sprague-Dawley male rats (weighing 270-300 g) with catheterised jugular vein and carotid artery. The catheterised carotid artery was used to continuously monitor blood pressure and the jugular vein was used for administration of the compounds tested. Rats received intravenous injections of dibenamine prior to dosing to enhance their responsiveness to V1a receptor agonists (cf. Dekanski, J., Br. J. Pharmacol. 1952, 7, 567-572). […] Dosing intervals were set as time for the blood pressure to decrease to a stable baseline.
Determination of duration of action was based on the decay rate of diastolic arterial blood pressure transient increase. Specifically, for an exponential decay of plasma concentration, it can be shown that, if the response is measured beyond the distribution phase, the rate of decay near the EC50 is linear and inversely proportional to the elimination half-life (Rowland, M. and Tozer, T. in “Clinical Pharmacokinetics, Concepts and Applications”, 3rd ed., Lippincott Williams & Wilkins, Philadelphia, 1995).

[2] = target: T2, human oxytocin (hOT) receptor (Homo sapiens, UniProt P30559); assay: luciferase-based transcriptional reporter assay, selectivity hOT versus hV1a; format: cell-based
T2 construct: expressed in transfected cells
T2 sequence (P30559 1-389): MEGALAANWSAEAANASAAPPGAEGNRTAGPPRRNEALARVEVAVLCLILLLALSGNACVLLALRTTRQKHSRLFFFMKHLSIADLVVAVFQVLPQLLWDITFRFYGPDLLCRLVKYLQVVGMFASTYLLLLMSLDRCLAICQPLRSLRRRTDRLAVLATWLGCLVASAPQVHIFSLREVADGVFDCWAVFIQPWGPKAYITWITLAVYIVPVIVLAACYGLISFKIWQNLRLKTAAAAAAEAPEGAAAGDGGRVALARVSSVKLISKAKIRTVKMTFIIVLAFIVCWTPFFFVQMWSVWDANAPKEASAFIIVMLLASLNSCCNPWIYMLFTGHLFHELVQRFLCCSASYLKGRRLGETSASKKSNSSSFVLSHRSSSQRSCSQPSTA
Method: as §1, §2

T1 sequence (P37288 whole entry): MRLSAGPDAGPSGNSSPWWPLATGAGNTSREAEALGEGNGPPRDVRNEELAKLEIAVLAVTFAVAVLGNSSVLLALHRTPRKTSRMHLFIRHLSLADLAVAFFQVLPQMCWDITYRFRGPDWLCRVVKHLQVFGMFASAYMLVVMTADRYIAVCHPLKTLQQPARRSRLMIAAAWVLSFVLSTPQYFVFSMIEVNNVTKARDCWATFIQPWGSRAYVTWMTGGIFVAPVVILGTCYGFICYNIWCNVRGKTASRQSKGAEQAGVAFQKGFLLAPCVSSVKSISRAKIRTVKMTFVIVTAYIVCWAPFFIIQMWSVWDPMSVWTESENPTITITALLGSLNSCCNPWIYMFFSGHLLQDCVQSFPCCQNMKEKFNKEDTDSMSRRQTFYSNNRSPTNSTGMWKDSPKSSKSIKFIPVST

Compound | EC50 (hV1a receptor) [nM] | in vivo duration relative to AVP [1] | selectivity hOT/hV1a ([2]; EC50 ratio) | selectivity hOT/hV1a [2] | EC50 (hV1a receptor; HEK-293 cells transiently transfected with hV1a receptor, 5 hours exposure, geometric mean, read-out: EC50 hV1a receptor) [nM] | selectivity hOT/hV1a ([2]; class symbol, agonist efficacy at hOT receptor compared to AVP)
CCNCCC[C@H](NC(=O)[C@@H]1CCCN1C(=O)[C@@H]1CSSC[C@H](N)C(=O)N[C@@H](Cc2ccccc2)C(=O)N[C@@H]([C@@H](C)CC)C(=O)N[C@@H](CCC(N)=O)C(=O)N[C@@H](CC(N)=O)C(=O)N1)C(=O)NCC(N)=O [Compound 6] (H-CFIQNCP[X1]G-NH2; disulfide 1-6; N-terminus and C-terminus assumed) | 0.29 | 1.9 | 86 |  |  | 
CC[C@H](C)[C@@H]1NC(=O)[C@H](Cc2ccccc2)NC(=O)[C@@H](N)CSSC[C@@H](C(=O)N2CCC[C@H]2C(=O)N[C@@H](CCN)C(=O)NCC(N)=O)NC(=O)[C@H](CC(N)=O)NC(=O)[C@H](CCCC(N)=O)NC1=O [Compound 11] (H-CFI[Aad](NH2)NCP[Dab]G-NH2; disulfide 1-6) | 2.96 | 1.9 |  | + (key: +: selective hV1a receptor agonist; EC50 hOT/hV1a ratio not determined due to very low agonist efficacy (<30% compared to AVP) at the hOT receptor) |  | 
CC[C@H](C)[C@@H]1NC(=O)[C@H](Cc2ccco2)NC(=O)[C@@H](N)CSSC[C@@H](C(=O)N2CCC[C@H]2C(=O)N[C@@H](CCCN)C(=O)NCC(N)=O)NC(=O)[C@H](CC(N)=O)NC(=O)[C@H](CCC(N)=O)NC1=O [Compound 25] (H-C[Ala(2-furyl)]IQNCP[Orn]G-NH2; disulfide 1-6) | 1.4 | 2.0 |  | 23 |  | 
CC[C@H](C)[C@@H]1NC(=O)[C@H](Cc2ccccc2)NC(=O)[C@@H](N)CSSC[C@@H](C(=O)N2CCC[C@H]2C(=O)N[C@@H](CCN)C(=O)NCC(N)=O)NC(=O)[C@H](CC(N)=O)NC(=O)[C@H](CC(N)=O)NC1=O [Compound 3] (H-CFINNCP[Dab]G-NH2; disulfide 1-6) | 1.47 | 1.7 |  | + (key: +: selective hV1a receptor agonist; EC50 hOT/hV1a ratio not determined due to very low agonist efficacy (<30% compared to AVP) at the hOT receptor) |  | 
CC[C@H](C)[C@@H]1NC(=O)[C@H](Cc2ccccc2)NC(=O)[C@@H](N)CSSC[C@@H](C(=O)N2CCC[C@H]2C(=O)N[C@@H](CCCN)C(=O)NCC(N)=O)NC(=O)[C@H](CC(N)=O)NC(=O)[C@H](CCCC(N)=O)NC1=O [Compound 9] (H-CFI[Aad](NH2)NCP[Orn]G-NH2; disulfide 1-6) | 0.68 | 1.5 |  | + (key: +: selective hV1a receptor agonist; EC50 hOT/hV1a ratio not determined due to very low agonist efficacy (<30% compared to AVP) at the hOT receptor) |  | 
CC[C@H](C)[C@@H]1NC(=O)[C@H](Cc2ccccc2)NC(=O)[C@@H](N)CSSC[C@@H](C(=O)N2CCC[C@H]2C(=O)N[C@@H](CCCNC(C)C)C(=O)NCC(N)=O)NC(=O)[C@H](CC(N)=O)NC(=O)[C@H](CCC(N)=O)NC1=O [Compound 5] (H-CFIQNCP[Orn(iPr)]G-NH2; disulfide 1-6; N-terminus and C-terminus assumed) | 0.25 | 1.9 | 117 |  |  | 
CC[C@H](C)[C@@H]1NC(=O)[C@H](Cc2ccccc2)NC(=O)[C@@H](N)CSSC[C@@H](C(=O)N2CCC[C@H]2C(=O)N[C@@H](CCCN)C(=O)NCC(N)=O)NC(=O)[C@H](CC(N)=O)NC(=O)[C@H](CC(N)=O)NC1=O [Compound 30] (H-CFINNCP[Orn]G-NH2; disulfide 1-6; N-terminus and C-terminus assumed) |  | 1.7 |  |  | 1.45 | + (selective hV1a receptor agonist; EC50 hOT/hV1a ratio not determined due to very low agonist efficacy (<30% compared to AVP) at the hOT receptor)
CC[C@H](C)[C@@H]1NC(=O)[C@H](Cc2cccs2)NC(=O)[C@@H](N)CSSC[C@@H](C(=O)N2CCC[C@H]2C(=O)N[C@@H](CCCNC(C)C)C(=O)NCC(N)=O)NC(=O)[C@H](CC(N)=O)NC(=O)[C@H](CCC(N)=O)NC1=O [Compound 34] (H-C[2Thi]IQNCP[Orn(iPr)]G-NH2; disulfide 1-6) | 0.73 | 2.0 |  | 72 |  | 
